Patent publication US4952577A, “Methoxymethyl penem compounds” (Farmitalia Carlo Erba S.r.l., priority 1987, dated 1990)
In brackets after ≈: the same amount, converted by molar mass. Read-outs that look alike come from different tables or passages of the source. Values belong to the compound of their own block, whether it stands above or below them.

Tests used:
[1] = Pharmacokinetic parameters of prodrug esters; format: in vivo; details: mouse; last line of Table 4
[2] = tested on: E. aerogenes F46; assay: In vitro antibacterial activity (MIC); format: cell-based; details: Klebsiella aerogenes
[3] = tested on: S. faecalis ATCC 6057; assay: In vitro antibacterial activity (MIC); format: cell-based; details: Enterococcus faecalis, ATCC6057
[4] = tested on: Shigella flexneri ATCC 11836; assay: In vitro antibacterial activity (MIC); format: cell-based; details: ATCC11836
[5] = tested on: gram-positive and gram-negative bacteria; assay: Control and treatment of experimental infections in the mouse; format: in vivo
[6] = tested on: C. freundii 4051 cef. R; assay: In vitro antibacterial activity (MIC); format: cell-based; details: Citrobacter freundii
[7] = tested on: S. faecium ATCC 8043; assay: In vitro antibacterial activity (MIC); format: cell-based; details: Enterococcus faecium, ATCC8043
[8] = tested on: Providencia stuartii Bs 60; assay: In vitro antibacterial activity (MIC); format: cell-based; details: BS60
[9] = tested on: Escherichia coli K 12; assay: In vitro antibacterial activity (MIC); format: cell-based; details: K12
[10] = tested on: Staphylococcus aureus Smith; assay: Therapeutic efficacy against experimental infections in the mouse; format: in vivo; details: sc, subcutaneous administration, therapy 2 hours after infection, read-out: ED50 (cumulative dose)
[11] = tested on: P. morganii ATCC 25830; assay: In vitro antibacterial activity (MIC); format: cell-based; details: Morganella morganii, ATCC25830
[12] = tested on: S. aureus 5635 MR; assay: In vitro antibacterial activity (MIC); format: cell-based; details: Staphylococcus aureus
[13] = tested on: E. coli B cef. R; assay: In vitro antibacterial activity (MIC); format: cell-based; details: Escherichia coli
[14] = tested on: P. rettgeri ATCC 925; assay: In vitro antibacterial activity (MIC); format: cell-based; details: Providencia rettgeri, ATCC925
[15] = tested on: S. faecalis 55; assay: In vitro antibacterial activity (MIC); format: cell-based; details: Enterococcus faecalis
[16] = tested on: Proteus mirabilis FI 7474; assay: In vitro antibacterial activity (MIC); format: cell-based; details: FI7474
[17] = tested on: Cirobacter freundii ATCC 8090; assay: In vitro antibacterial activity (MIC); format: cell-based
[18] = tested on: Streptococcus pyogenes ATCC 12384; assay: In vitro antibacterial activity (MIC); format: cell-based; details: ATCC12384
[19] = tested on: Serratia marcescens ATCC 2902; assay: In vitro antibacterial activity (MIC); format: cell-based; details: ATCC2902
[20] = tested on: K. Aerogenes 1082 E cef. R; assay: In vitro antibacterial activity (MIC); format: cell-based; details: Klebsiella aerogenes
[21] = tested on: P. vulgaris 51; assay: In vitro antibacterial activity (MIC); format: cell-based; details: Proteus vulgaris
[22] = tested on: S. epidermidis ATCC 12228; assay: In vitro antibacterial activity (MIC); format: cell-based; details: Staphylococcus epidermidis, ATCC12228
[23] = tested on: Enterobacter cloacae 1321E; assay: In vitro antibacterial activity (MIC); format: cell-based
[24] = tested on: A. calcolaceticus N 409; assay: In vitro antibacterial activity (MIC); format: cell-based
[25] = tested on: S. aureus 39/2 Pen^+; assay: In vitro antibacterial activity (MIC); format: cell-based; details: Staphylococcus aureus
[26] = tested on: P. aeruginosa ATCC 19660; assay: In vitro antibacterial activity (MIC); format: cell-based; details: Pseudomonas aeruginosa, ATCC19660
[27] = tested on: S. aureus 2 MR; assay: In vitro antibacterial activity (MIC); format: cell-based; details: Staphylococcus aureus
[28] = tested on: Salmonella typhi ATCC 14028; assay: In vitro antibacterial activity (MIC); format: cell-based; details: Salmonella enterica, read-out: In vitro MIC
[29] = tested on: Acinetobacter calcoaceticus Bg 3; assay: In vitro antibacterial activity (MIC); format: cell-based; details: BG3
[30] = tested on: Pseudomonas aeruginosa 2598; assay: In vitro antibacterial activity (MIC); format: cell-based
[31] = tested on: S. aureus 2101 MR; assay: In vitro antibacterial activity (MIC); format: cell-based; details: Staphylococcus aureus
[32] = tested on: Escherichia coli G; assay: Therapeutic efficacy against experimental infections in the mouse; format: in vivo; details: therapy 0.5-1.5-6 hours after infection, read-out: ED50 (cumulative dose)
[33] = tested on: E. aerogenes 225; assay: In vitro antibacterial activity (MIC); format: cell-based; details: Klebsiella aerogenes
[34] = tested on: Staphylococcus aureus Smith; assay: In vitro antibacterial activity (MIC); format: cell-based
[35] = tested on: E. coli R997 (HSM-1); assay: In vitro antibacterial activity (MIC); format: cell-based; details: Escherichia coli
[36] = tested on: Klebsiella aerogenes 1522E; assay: In vitro antibacterial activity (MIC); format: cell-based
[37] = tested on: E. cloacae P99 cef. R.; assay: In vitro antibacterial activity (MIC); format: cell-based; details: Enterobacter cloacae, P99CEF.R.
[38] = tested on: S. salivarius ATCC 9758; assay: In vitro antibacterial activity (MIC); format: cell-based; details: Streptococcus salivarius, ATCC9758
[39] = tested on: renal dehydropeptidases; assay: Stability towards renal dehydropeptidases; format: in vitro ADME; details: compared with the prior-described mixture
[40] = Chemical stability over the whole pH-range; format: physicochemical; details: compared with the prior-described mixture
[41] = tested on: bacterial β-lactamases; assay: Stability towards bacterial β-lactamases; format: in vitro ADME; details: compared with the prior-described mixture

- [drawing 32] (parameter name shown only as drawing) [1]: 6
SMILES: CC(=O)OCOC(=O)C1=C(COC(N)=O)S[C@@H]2[C@@H]([C@@H](C)O)C(=O)N12 [FCE 22891, reference compound]

SMILES: COCC1=C(C(=O)O)N2C(=O)[C@H]([C@@H](C)O)[C@H]2S1 [5R,6S,1'R isomer]
- MIC [2]: 0.78 µg/mL (≈ 3.01 µM)
- MIC [3]: 1.56 µg/mL (≈ 6.02 µM)
- MIC [4]: 0.19 µg/mL (≈ 0.733 µM)
- efficacy in the control and treatment of experimental infections [5]: excellent efficacy
- MIC [6]: 6.25 µg/mL (≈ 24.1 µM)
- MIC [7]: 3.12 µg/mL (≈ 12 µM)
- MIC [8]: 3.12 µg/mL (≈ 12 µM)
- MIC [9]: 0.39 µg/mL (≈ 1.5 µM)
- ED50 [10]: 0.21 mg/kg
- MIC [11]: 1.56 µg/mL (≈ 6.02 µM)
- MIC [12]: 0.19 µg/mL (≈ 0.733 µM)
- MIC [13]: 0.78 µg/mL (≈ 3.01 µM)
- MIC [14]: 1.56 µg/mL (≈ 6.02 µM)
- MIC [15]: 3.12 µg/mL (≈ 12 µM)
- MIC [16]: 0.78 µg/mL (≈ 3.01 µM)
- MIC [17]: 0.39 µg/mL (≈ 1.5 µM)
- MIC [18]: 0.022 µg/mL (≈ 0.0848 µM)
- MIC [19]: 6.25 µg/mL (≈ 24.1 µM)
- MIC [20]: 0.39 µg/mL (≈ 1.5 µM)
- MIC [21]: 0.39 µg/mL (≈ 1.5 µM)
- MIC [22]: 0.09 µg/mL (≈ 0.347 µM)
- MIC [23]: 0.39 µg/mL (≈ 1.5 µM)
- MIC [24]: 6.25 µg/mL (≈ 24.1 µM)
- MIC [25]: 0.09 µg/mL (≈ 0.347 µM)
- MIC [26]: > 25 µg/mL
- MIC [27]: 3.12 µg/mL (≈ 12 µM)
- MIC [28]: 0.39 µg/mL (≈ 1.5 µM)
- MIC [29]: 1.56 µg/mL (≈ 6.02 µM)
- MIC [30]: > 25 µg/mL
- MIC [31]: 3.12 µg/mL (≈ 12 µM)
- ED50 ([32]; sc, subcutaneous administration): 6.7 mg/kg
- MIC [33]: 0.78 µg/mL (≈ 3.01 µM)
- MIC [34]: 0.09 µg/mL (≈ 0.347 µM)
- MIC [35]: 0.39 µg/mL (≈ 1.5 µM)
- MIC [36]: 0.39 µg/mL (≈ 1.5 µM)
- MIC [37]: 0.39 µg/mL (≈ 1.5 µM)
- MIC [38]: 0.022 µg/mL (≈ 0.0848 µM)

SMILES: COCC1=C(C(=O)OCOC(C)=O)N2C(=O)[C@H]([C@@H](C)O)[C@H]2S1 [Compound 1, Acetoxymethyl (5R,6S)-6-[l(R)-Hydroxyethyl]-2-Methoxymethyl-Penem-3-Carboxylate]
- [drawing 32] (parameter name shown only as drawing) [1]: 7

SMILES: COCC1=C(C(=O)O)N2C(=O)[C@H]([C@@H](C)O)[C@H]2S1 [compound of formula (I), (5R,6S, 1'R)-configured 6-(1-hydroxyethyl)-2-methoxymethyl-penem-3-carboxylic acid]
- stability towards renal dehydropeptidases [39]: superior stability
- chemical stability [40]: considerably improved chemical stability
- stability towards bacterial β-lactamases [41]: superior stability

- [drawing 32] (parameter name shown only as drawing) [1]: 7
SMILES: COCC1=C(C(=O)OCc2oc(=O)oc2C)N2C(=O)[C@H]([C@@H](C)O)[C@H]2S1 [Compound 20, (5-Methyl-2-Oxo-1,3-Dioxolen-4-yl)Methyl (5R,6S)-6-[1(R)-Hydroxyethyl]-2-Methoxymethyl-Penem-3-Carboxylate]
- ED50 ([32]; oral administration): 13.1 mg/kg
